Measured values taken from patent publication EP3991732A1, “USE OF CLOFAZIMINE IN HEPATOCELLULAR CARCINOMA” (UNIVERSITE DE GENEVE, priority 2020, dated 2022).

Legend:
Wnt signalling (SNU398) = test: TopFlash dual luciferase assay, SNU398; assay type: cell-based, human
Procedure: (§1) Briefly, 50 µl of indicated cell lines at 84'000/ml for Huh7, or 96'000/ml for SNU398, or 144'000/ml for HepG2, Hep3B were distributed in a white opaque 384-well plate. The cells were maintained in their respective culture mediums and incubated at 37°C, 5% CO2 overnight for attachment. Afterwards, the cells are double-transfected (1:1 mixture) with the Wnt-specific TopFlash reporter plasmid (Syngene) and a Wnt-independent CMV-Renilla plasmid monitoring the general level of cell transcription (Addgene, Cambridge, MA, USA). The relative nature of this representation (ratio of the TopFlash to the CMV-Renilla levels) permits to compare Wnt pathway levels across cell types, being independent from individual cell transfection efficiency.
(§2) Transfection was carried out as described in the manufacturer's protocol using 12 µg/ml of DNA and 40 µl/ml XtremeGENE 9 reagent (Roche). The next day, the medium of each well was replaced 30 µl fresh medium containing Wnt3a (500 ng/ml) (purified as described by (Koval and Katanaev, 2011, Biochemical Journal 433, 435) or GSK3β inhibitor (CHIR99021, Sigma-Aldrich) and clofazimine at 5, 10, and 15 µM concentrations (following 1h of preincubation with the compound). After overnight incubation, the supernatant in each well was removed and the luciferase activity was measured as described (Koval and Katanaev, 2011, supra). […]

Wnt signalling (Hep3B) = test: TopFlash dual luciferase assay, Hep3B; assay type: cell-based, human
Procedure: as §1, §2

Wnt signalling (Huh7) = test: TopFlash dual luciferase assay, Huh7; assay type: cell-based, human
Procedure: as §1, §2

Wnt signalling (HepG2) = test: TopFlash dual luciferase assay, HepG2; assay type: cell-based, human
Procedure: as §1, §2

SNU398 = test: MTT survival assay, SNU398; assay type: cell-based, human
Procedure: (§3) The four hepatocellular carcinoma (HCC) cell lines were tested in MTT survival assay with clofazimine as described below: 50 µl of the indicated cell lines re-suspended at 60'000 cells/ml for HepG2, Hep3B, at 35'000/ml for Huh7 and at 40'000/ml for SNU398 were added into each well of a transparent 384-well plate. The cells were maintained in DMEM containing 10% FBS for Hep3B; RPMI with 10% FBS for SNU398; DMEM without glucose containing 10% FBS and 1g/L glucose for Huh7 and MEM without glucose containing 10% FBS for HepG2 and incubated at 37°C, 5% CO2 overnight. The medium of each well was replaced by 100 µl fresh medium the next day containing the indicated concentrations of clofazimine. After incubation for 4-7 days (depending on the growth rate of line), the medium in each well was replaced by 50 µl of 0.5 mg/ml Thiazolyl blue (Carl Roth) solution in 1xPBS. The plates were incubated for 3h at 37°C. Then the solution was removed and 50 µl DMSO was added into each well. Absorbance at 570 nm was measured in a Tecan Infinite M200 PRO plate reader.

Hep3B = test: MTT survival assay, Hep3B; assay type: cell-based, human
Procedure: as §3

Huh7 = test: MTT survival assay, Huh7; assay type: cell-based; conditions: Homo sapiens, Huh-7, Huh7 cells, incubation 4-7 days
Procedure: as §3

HepG2 = test: MTT survival assay, HepG2; assay type: cell-based; conditions: Homo sapiens, HepG2 cells, incubation 4-7 days
Procedure: as §3

[1] = versus relatively low basal level
[2] = clofazimine 5, 10, 15 µM, Wnt3a 500 ng/ml

Row | stimulation of Wnt signalling levels by activator (TopFlash) (Wnt signalling (Hep3B); [1]) | stimulation of Wnt signalling levels by activator (TopFlash) (Wnt signalling (Huh7); [1]) | inhibiting effect on Wnt signaling (Wnt3a-induced response in the TopFlash assay) (Wnt signalling (SNU398); [2]) | inhibiting effect on Wnt signaling (Wnt3a-induced response in the TopFlash assay) (Wnt signalling (Hep3B); [2]) | inhibiting effect on Wnt signaling (Wnt3a-induced response in the TopFlash assay) (Wnt signalling (Huh7); [2]) | inhibiting effect on Wnt signaling (Wnt3a-induced response in the TopFlash assay) (Wnt signalling (HepG2); [2]) | SMILES | stimulation of Wnt signalling levels by activator (TopFlash) (Wnt signalling (SNU398); versus very high basal level) | stimulation of Wnt signalling levels by activator (TopFlash) (Wnt signalling (HepG2); versus very high basal level) | IC50 (SNU398; Homo sapiens, SNU-398, SNU398 cells, MTT, incubation 4-7 days) | stronger sensitivity to growth inhibition than HepG2 and Huh7 (SNU398; SNU398 versus HepG2 and Huh7, MTT assay) | stronger sensitivity to growth inhibition than HepG2 and Huh7 (Hep3B; Hep3B versus HepG2 and Huh7, MTT assay) | IC50 (Hep3B; Homo sapiens, Hep3B cells, MTT, incubation 4-7 days) | IC50 (Huh7) | IC50 (HepG2)
1 | strongly stimulated | strongly stimulated | – | – | – | – | Cc1c[nH]c(-c2cnc(NCCNc3ccc(C#N)cn3)nc2-c2ccc(Cl)cc2Cl)n1 [CHIR99021] | not at all or to at best limited extent further increased | not at all or to at best limited extent further increased | – | – | – | – | – | –
2 | – | – | inhibited | inhibited | non-responsive | non-responsive | CC(C)N=c1cc2n(-c3ccc(Cl)cc3)c3ccccc3nc-2cc1Nc1ccc(Cl)cc1 [clofazimine, N,5-bis(4-chlorophenyl)-3-(propan-2-ylimino)-3,5-dihydrophenazin-2-amine] | – | – | 1 to 2 µM | > 10 fold | > 10 fold | 1 to 2 µM | 13 µM | 17 µM
